The results in this text go back to DBAASP.

By MIC is commonly meant the lowest concentration found to suppress growth. Low values mean inhibition by little substance, high ones a need for much substance.

≈ marks a conversion by molar mass, not a printed value. Where only a bound is given, the exact number is not on record here.

What all share (assay): ≥ marks a high value that may be exact or a test limit, other limits are often not marked, values filed in µg/mL are converted to µM
Experiment [1] relates to Candida albicans ATCC 10231.
Experiment [2] relates to Cryptococcus neoformans ATCC 32045.
In experiment [3] the test system is Escherichia coli ATCC 2592.
Experiment [4] deals with Pseudomonas aeruginosa ATCC 10145.
The test system of experiment [5] is Staphylococcus aureus ATCC 33591.

As for `C[C@H](NC(=O)[C@H](CCCCN)NC(=O)[C@H](Cc1ccccc1)NC(=O)[C@H](C)NC(=O)[C@H](CCCCN)NC(=O)[C@H](Cc1ccccc1)NC(=O)[C@H](C)NC(=O)[C@H](CCCCN)NC(=O)[C@H](Cc1ccccc1)NC(=O)[C@H](C)NC(=O)[C@H](CCCCN)NC(=O)[C@H](Cc1ccccc1)NC(=O)[C@H](C)NC(=O)[C@H](CCCCN)NC(=O)[C@H](Cc1ccccc1)NC(=O)[C@H](C)NC(=O)[C@H](CCCCN)NC(=O)[C@H](Cc1ccccc1)NC(=O)[C@H](C)NC(=O)[C@H](CCCCN)NC(=O)[C@@H](N)Cc1ccccc1)C(=O)O` [FKAFKAFKAFKAFKAFKAFKA], the MIC is 145 µM (≈ 354 µg/mL) in experiment [1]; 2.32 µM (≈ 5.66 µg/mL) in experiment [2]; 9.26 µM (≈ 22.6 µg/mL) in experiment [3]; 13.1 µM (≈ 32 µg/mL) in experiment [4]; not below 205 µM in experiment [5].
As for `C[C@H](NC(=O)[C@H](Cc1ccccc1)NC(=O)[C@H](CCCCN)NC(=O)[C@H](CCCCN)NC(=O)[C@H](C)NC(=O)[C@H](Cc1ccccc1)NC(=O)[C@H](CCCCN)NC(=O)[C@H](CCCCN)NC(=O)[C@H](C)NC(=O)[C@H](Cc1ccccc1)NC(=O)[C@H](CCCCN)NC(=O)[C@H](CCCCN)NC(=O)[C@H](C)NC(=O)[C@H](Cc1ccccc1)NC(=O)[C@H](CCCCN)NC(=O)[C@H](CCCCN)NC(=O)[C@H](C)NC(=O)[C@H](Cc1ccccc1)NC(=O)[C@H](CCCCN)NC(=O)[C@H](CCCCN)NC(=O)[C@H](C)NC(=O)[C@H](Cc1ccccc1)NC(=O)[C@@H](N)CCCCN)C(=O)N[C@@H](CCCCN)C(=O)O` [KFAKKFAKKFAKKFAKKFAKKFAK], the MIC is 34.9 µM (≈ 100 µg/mL) in experiment [1]; 7.9 µM (≈ 22.6 µg/mL) in experiment [2]; 3.95 µM (≈ 11.3 µg/mL) in experiment [3]; 5.58 µM (≈ 16 µg/mL) in experiment [4]; not below 61.7 µM in experiment [5].
Turning to `C[C@H](NC(=O)[C@H](Cc1ccccc1)NC(=O)[C@H](CCCCN)NC(=O)[C@H](CCCCN)NC(=O)[C@H](C)NC(=O)[C@H](Cc1ccccc1)NC(=O)[C@@H](N)CCCCN)C(=O)N[C@@H](CCCCN)C(=O)O` [KFAKKFAK], the MIC is more than 258 µM in experiment [1]; not below 258 µM in experiment [2]; not below 258 µM in experiment [3]; not below 258 µM in experiment [4]; not below 258 µM in experiment [5].
Turning to `CC(C)C[C@H](NC(=O)[C@H](CCCCN)NC(=O)[C@H](CC(C)C)NC(=O)[C@H](CCCCN)NC(=O)[C@H](CC(C)C)NC(=O)[C@H](CCCCN)NC(=O)[C@H](CC(C)C)NC(=O)[C@H](CCCCN)NC(=O)[C@H](CC(C)C)NC(=O)[C@H](CCCCN)NC(=O)[C@H](CC(C)C)NC(=O)[C@H](CCCCN)NC(=O)[C@@H](N)CC(C)C)C(=O)N[C@@H](CCCCN)C(=O)O` [LKLKLKLKLKLKLK], the MIC was 207 µM (≈ 354 µg/mL) in experiment [1]; 1.66 µM (≈ 2.83 µg/mL) in experiment [2]; 30.9 µM (≈ 52.8 µg/mL) in experiment [3]; not below 73.2 µM in experiment [4]; not below 207 µM in experiment [5].
As to `CC(C)C[C@H](NC(=O)[C@H](CCCN=C(N)N)NC(=O)[C@H](CC(C)C)NC(=O)[C@H](CCCN=C(N)N)NC(=O)[C@H](CC(C)C)NC(=O)[C@H](CCCN=C(N)N)NC(=O)[C@H](CC(C)C)NC(=O)[C@H](CCCN=C(N)N)NC(=O)[C@H](CC(C)C)NC(=O)[C@H](CCCN=C(N)N)NC(=O)[C@H](CC(C)C)NC(=O)[C@H](CCCN=C(N)N)NC(=O)[C@H](CC(C)C)NC(=O)[C@H](CCCN=C(N)N)NC(=O)[C@H](CC(C)C)NC(=O)[C@H](CCCN=C(N)N)NC(=O)[C@@H](N)CC(C)C)C(=O)N[C@@H](CCCN=C(N)N)C(=O)O` [LRLRLRLRLRLRLRLRLR], the MIC in experiment [1] was 145 µM (≈ 354 µg/mL); in experiment [2], not below 36 µM; in experiment [3] it was not below 51.2 µM; in experiment [4], not below 102 µM; in experiment [5], not below 72.4 µM.
